≈ marks a conversion by molar mass, not a printed value.
What follows are molecules tested on Mycolicibacterium smegmatis (assay: Antimicrobial activity against Mycobacterium smegmatis).
Assay type: functional

SMILES | MIC [µg/mL]
CO[C@@H]1[C@@H](OC)[C@H](C)O[C@@H](OC(=O)C[C@@H](C)CC(=O)O[C@@H](CCCCCCCCCC(C)C)CC(=O)O[C@H]2CN(C)[C@@H]([C@H](O[C@@H]3O[C@H](CN)[C@@H](O)[C@H]3O)[C@H]3O[C@@H](n4ccc(=O)[nH]c4=O)[C@H](O)[C@@H]3O)C(=O)N(C)[C@@H]2C(=O)O)[C@@H]1OC | 1.56 (≈ 1.38 µM)
CCCCCCCCCCCCCCCC(=O)O[C@H]1CN(C)[C@@H]([C@H](O[C@@H]2O[C@H](CN)[C@@H](O)[C@H]2O)[C@H]2O[C@@H](n3ccc(=O)[nH]c3=O)[C@H](O)[C@@H]2O)C(=O)N(C)[C@@H]1C(=O)O [PALMITOYL CAPRAZOL] | 6.25 (≈ 7.68 µM)

These molecules were tested on Mycobacterium tuberculosis (assay: Antimicrobial activity against Mycobacterium tuberculosis H37Rv by almar blue assay).
Assay type: functional

SMILES | MIC50 [µg/mL]
CCCCCCCCCCCCCCCC(=O)O[C@H]1CN(C)[C@@H]([C@H](O)[C@H]2O[C@@H](n3ccc(=O)[nH]c3=O)[C@H](O)[C@@H]2O)C(=O)N(C)[C@@H]1C(=O)O | > 100
CCCCCCCCCCCCCCCC(=O)OC[C@H](NC(=O)[C@@H](N)[C@H](O[C@@H]1O[C@H](CN)[C@@H](O)[C@H]1O)[C@H]1O[C@@H](n2ccc(=O)[nH]c2=O)[C@H](O)[C@@H]1O)C(=O)O | 6.25 (≈ 8.08 µM)
CCCCCCCCCCCCCCCC(=O)O[C@H]1CN(C)[C@@H]([C@@H](C)O[C@@H]2O[C@H](CN)[C@@H](O)[C@H]2O)C(=O)N(C)[C@@H]1C(=O)O | > 100
CN1C[C@H](O)[C@@H](C(=O)O)N(C)C(=O)[C@@H]1[C@H](O[C@@H]1O[C@H](CN)[C@@H](O)[C@H]1O)[C@H]1O[C@@H](n2ccc(=O)[nH]c2=O)[C@H](O)[C@@H]1O [CAPRAZOL] | > 100
CCCCCCCCCCCCCCCC(=O)O[C@H]1CN(C)[C@@H]([C@H](O[C@@H]2O[C@H](CN)[C@@H](O)[C@H]2O)[C@H]2O[C@@H](n3ccc(=O)[nH]c3=O)[C@H](O)[C@@H]2O)C(=O)N(C)[C@@H]1C(=O)O [PALMITOYL CAPRAZOL] | 2.5 (≈ 3.07 µM)
